Measured values reported in patent US20260345723A1, “Treatments for Opioid-Induced Respiratory Depression” (priority 2023, published 2026).
Read-outs that look alike come from different tables or passages of the source.

How the values were obtained:
[1] = tested on: morphine physical dependence; experiment: Morphine physical dependence (naloxone-precipitated withdrawal signs); format: in vivo, rat (male Sprague Dawley)
Experimental: Adult male Sprague Dawley (226-275 g) were purchased from Taconic Laboratories and maintained on a 12-hour/12-hour light/dark cycle with the lights off at 9:30 a.m. in a temperature- and humidity-controlled animal care facility. For the duration of the experiment, rats were housed two per cage and given unrestricted access to food and water at all times when in the home cage.
Rats were implanted (SC, flank area) with 75 mg morphine pellets that remained intact for 7 days. Beginning on the day of pellet implantation, rats received daily injections of saline or RAP-103 (0.001, 0.1 or 1 mg/kg, IP, delivered in […]) throughout chronic morphine exposure. On the test day, rats were transported to the testing room and allowed to acclimate for 60 min before naloxone hydrochloride (10 mg/kg, IP, delivered in a 1 ml/kg volume) was injected to precipitate withdrawal signs. Immediately after naloxone administration, rats were placed into individual observation boxes and observed for 60 min. A modified version of the Gellet-Holtzman scale was used to grade withdrawal signs. Wet dog shakes, teeth chattering, eye blinks, and paw tremor were evaluated as the number of qualitatively observed occurrences over the 60-min test time.
Respiratory depression data were analyzed by two-way ANOVA (RAP-103 pretreatment×morphine treatment) followed by a Bonferroni's multiple comparison test. Physical dependence data were analyzed by a Student's t-test. Self-administration (SA) time-course data for heroin and sucrose were analyzed by two-way ANOVA (RAP-103 treatment x day) followed by a Bonferroni's multiple comparison test. SA PR challenge data were analyzed by a Student's t-test. Protein and mRNA data were analyzed by two-way ANOVA (RAP-103 pretreatment x morphine treatment) followed by a Newman-Keuls post-hoc analysis. In all cases, P<0.05 was considered statistically significant.

CCR2 [2] = details: cited from earlier work
pain pathways = details: cited from earlier work
[3] = tested on: tyrosine hydroxylase (TH); experiment: TH protein levels in mesolimbic pathway, morphine abstinence (Western blot); format: in vivo, rat; details: RAP-103 + morphine, vs drug-naïve (P<0.05) and morphine only (P<0.01)
Experimental: For 10 d, rats were given two injections during the dark cycle. One injection (RAP-103 [1 mg/kg] or saline) was delivered IP, and 5 min later the second injection (morphine [5 mg/kg] or saline) was given SC. Brain tissue was collected 24 h after the last morphine or saline injection for protein analysis of chemokine and opioid markers in the ventral tegmental area (VTA), nucleus accumbens (NAC) and prefrontal cortex (PFC).
For immunoblotting experiments, tissue lysates were obtained using RIPA buffer, and were then homogenized. Samples were centrifuged for 15 minutes at 12,000 g. Supernatant were transferred to new tubes. […] Immunoreactive bands were quantified by Image Studio (Licor Ver 2.0) and normalized to the bands of GAPDH. […]
Respiratory depression data were analyzed by two-way ANOVA (RAP-103 pretreatment×morphine treatment) followed by a Bonferroni's multiple comparison test. Physical dependence data were analyzed by a Student's t-test. Self-administration (SA) time-course data for heroin and sucrose were analyzed by two-way ANOVA (RAP-103 treatment x day) followed by a Bonferroni's multiple comparison test. SA PR challenge data were analyzed by a Student's t-test. Protein and mRNA data were analyzed by two-way ANOVA (RAP-103 pretreatment x morphine treatment) followed by a Newman-Keuls post-hoc analysis. […]

[4] = format: in vivo, Rhesus macaque (Macaca mulatta); details: seven days
neuropathic pain = details: previous research; cited from earlier work
[5] = tested on: opioid-induced respiratory depression; experiment: Example 4: treatment of a subject prescribed a high level of opioids; format: in vivo, human; details: oral pill, concurrent with opioids
Description: A subject is prescribed a high level of opioids to treat a pain. The subject is concurrently administered RAP-103 to treat opioid-induced respiratory depression. RAP-103 is orally administered to the subject as a pill to treat the opioid-induced respiratory depression. After administration, the subject has no change in their respiratory rate and blood oxygen levels (e.g., maintains full respiratory function).

CCR2 [6] = details: CCR2, monocyte chemotaxis; read-out: half maximal inhibitory concentration IC50; cited from earlier work
[7] = format: in vivo, rats and guinea pigs
[8] = tested on: molecular hallmarks of neuropathic pain; details: previous research; cited from earlier work
CCR8 = details: cited from earlier work
[9] = format: in vivo, Rhesus macaque (Macaca mulatta)
Experimental: In non-human primates (rhesus monkeys) RAP-103 was dosed once on Day 1 by intravenous bolus injection at 1 mg/kg and plasma levels determined. […] Drug in plasma after a single IV dose (1 mg/Kg) was still measurable at anticipated therapeutic levels 96 hrs. post-dose in non-human primates as shown in FIG. 10B.

[10] = RAP-103 0.001, 0.1 mg/kg IP, P>0.05, reduced trend
[11] = RAP-103/morphine exposure, P>0.05
[12] = RAP-103 only vs drug-naïve, P>0.05

## D-Thr-D-Thr-D-Asn-D-Tyr-D-Thr [RAP-103]
[1]; [10]
  naloxone-precipitated eye blinking: did not significantly impact
  naloxone-precipitated wet dog shakes: did not significantly impact
[1]; RAP-103 1 mg/kg IP daily, morphine 75 mg pellet 7 d, naloxone 10 mg/kg IP, P<0.01
  reduction of frequency of wet dog shakes: approximately 43%
[1]; RAP-103 1 mg/kg IP daily, morphine 75 mg pellet 7 d, naloxone 10 mg/kg IP, P<0.05
  reduction of frequency of eye blinking: approximately 59%
[1]; any dose of RAP-103
  paw tremor: not affected
  teeth chattering: not affected
GFAP mRNA; [11]
  GFAP mRNA, PFC: significant changes in GFAP or IBA1 were not detected
GFAP mRNA; RAP-103 pretreatment + morphine, P<0.05
  GFAP gene expression, NAC: normalized the augmentation in GFAP gene expression
GFAP mRNA; RAP-103 pretreatment, morphine-naïve and morphine-treated rats, vs drug-naïve, P<0.05
  GFAP mRNA levels, VTA: significantly reduced GFAP mRNA levels
CCR2 [2]
  inhibition of chemokine ligand binding, CCR2: at least partially inhibits
Pain pathways
  monocyte infiltration: reduces
  spinal microglial activation: reduces
[3]
  TH protein levels, PFC: significantly elevated
IBA1 mRNA; RAP-103 + morphine vs drug-naïve and morphine by itself, P<0.01
  IBA1 mRNA levels, NAC: significantly enhanced
IBA1 mRNA; [11]
  IBA1 mRNA, PFC: significant changes in GFAP or IBA1 were not detected
IBA1 mRNA; RAP-103 pretreatment vs drug-naïve, P<0.05
  IBA1 mRNA levels, VTA: significantly increased IBA1 mRNA levels
IBA1 mRNA; morphine-naïve and morphine-abstinent rats
  microglial mRNA levels, VTA and NAC: enhanced microglial mRNA levels
[4]
  acute toxicity: no acute toxicity
  body weights: no RAP-103-related changes
  clinical observations: no RAP-103-related changes
Neuropathic pain
  mechanical allodynia: attenuate
  thermal hyperalgesia: attenuate
[5]
  blood oxygen levels: no change
  respiratory rate: no change
CCR2 [6]
  IC50: 4.2 pM
CXCR4; RAP-103 1 mg/kg IP + morphine
  CXCR4 protein levels, VTA: did not alter morphine enhancement of CCR2 or CXCR4
CXCR4; [12]
  CXCR4 protein levels, NAC: did not display significantly different levels
  CXCR4 protein levels, VTA: not significantly different
[7]; IV or oral gavage, rats and guinea pigs (FIG. 10A)
  persistence at therapeutic levels in brain: at least 24 hrs
[7]; in vivo
  brain entry compared to plasma levels: preferentially enters the brain
[8]
  cell membrane ruffling: downregulate
  immune cell migration: downregulate
  phagocytosis: downregulate
CCR8
  inhibition of chemokine ligand binding, CCR8: at least partially inhibits
[9]; intravenous bolus 1 mg/kg
  AUC 0-T, male vs female: comparable in male and female monkeys
  Cmax, male vs female: comparable in male and female monkeys
[9]; males, 1 mg/kg, rhesus monkeys
  absolute bioavailability: 89%
[9]; non-human primates (Rhesus macaque), 1 mg/kg
  oral bioavailability: 88%
[9]; primates, 1 mg/kg
  oral bioavailability: > 88%
[9]; single IV dose 1 mg/kg, post-dose
  time drug in plasma still measurable at anticipated therapeutic levels: ≥ 96 h
